According to patent US20250115558A1, “PYRIDAZINE DERIVATIVES AND RELATED USES” (NodThera Limited, priority 2023, published 2025):
Where a name gives a salt, the structure may show the parent alone.

Legend:
THP-1 = THP-1 IC50 assay; assay type: cell-based; settings: Homo sapiens; THP-1 cells
[1] = tested on: IL-1β release upon NLRP3 activation in peripheral blood mononuclear cells (PBMC); assay: PBMC IC50 Determination Assay; assay type: cell-based; settings: Homo sapiens; inhibition of IL-1β release; LPS-primed PBMC stimulated with ATP or nigericin
Method: The compounds of the present disclosure were tested for their inhibitory activity against IL-1β release upon NLRP3 activation in peripheral blood mononuclear cells (PBMC).
Protocol A. PBMC were isolated from buffy coats by density gradient centrifugation on Histopaque-1077 (Sigma, cat no. 10771). Isolated cells were seeded into the wells of a 96-well plate and incubated for 3 h with lipopolysaccharide (LPS). Following medium exchange, the compounds of the present disclosure were added (a single compound per well) and the cells were incubated for 30 min. Next, the cells were stimulated either with ATP (5 mM) or nigericin (10 μM) for 1 h and the cell culture media from the wells were collected for further analysis.
The release of IL-1β into the media was determined by a quantitative detection of IL-1β in the media using an IL-1β enzyme-linked immunosorbent assay (ELISA) Ready-SET-Go!, eBioscience cat. No. 88-7261-88. Briefly, in a first step, high affinity binding plates (Corning, Costar 9018 or NUNC Maxisorp Cat No. 44-2404) were coated overnight at 4° C. with specific capture antibody included in the kit (anti-human IL-1β ref. 14-7018-68). Subsequently, plates were blocked with blocking buffer for 1 h at room temperature (rt) and after washing with a buffer (PBS with 0.05% Tween-20) incubated with protein standard and culture media. After 2 h of incubation at rt, plates were washed and incubated with biotinylated detection antibody included in the kit (anti-human IL-1β Biotin ref. 33-7110-68) for 1 h at rt. Plates were washed and incubated with HRP-streptavidin for 30 min at rt and washed again. The signal was developed after addition of 3,3′,5,5′-tetramethylbenzidine-peroxidase (TMB) until colour appeared and the reaction was stopped by 2 M H2SO4. A microplate spectrophotometer (BioTek) was used to detect signals with 450 nm. The detection range of IL-1β ELISA was […].
Protocol B. PBMC were isolated from buffy coats by density gradient centrifugation on Histopaque-1077 (Sigma, cat no. 10771). Isolated cells were seeded into the wells (280,000 cells/well) of a 96-well plate and incubated for 3 h with lipopolysaccharide (LPS, 1 μg/mL diluted 1000× from a 1 mg/mL stock solution). The compounds of the present disclosure were added (a single compound per well) and the cells were incubated for 30 min. Next, the cells were stimulated with ATP (5 mM final concentration diluted 20× from a 100 mM stock solution) for 1 h and the cell culture media from the wells were collected for further analysis.
The release of IL-1β into the media was determined by quantitative detection of IL-1β in the media using HTRF®, CisBio cat. No. 62HIL1BPEH. Briefly, cell culture supernatant were dispensed directly into the assay plate containing antibodies labelled with the HTRF® donor and acceptor. A microplate spectrophotometer (BMG) was used to detect signals at 655 nm and 620 nm. The detection range of IL-1β HTRF® was 39-6500 μg/mL.

| SMILES | IC50 (THP-1) [nM] | IC50 [1] [nM] |
| --- | --- | --- |
| CO[C@H]1CCN(Cc2ccc(-c3c(C)cc(C(F)(F)F)cc3O)nn2)C1 [Compound 40, (S)-2-(6-((3-Methoxypyrrolidin-1-yl)methyl)pyridazin-3-yl)-3-methyl-5-(trifluoromethyl)phenol] | 1000 to 3000 | 500 to 1000 |
| Cc1cc(C(F)(F)F)cc(O)c1-c1ccc(Cn2ccc(=N)cc2)nn1 [Compound 25] | 3000 to 10000 | 3000 to 10000 |
| Cc1cc(C(F)(F)F)cc(O)c1-c1ccc(CN2CCOC2=O)nn1 [Compound 44, 3-((6-(2-Hydroxy-6-methyl-4-(trifluoromethyl)phenyl)pyridazin-3-yl)methyl)oxazolidin-2-one] | 500 to 1000 | < 500 |
| Cc1cc(C(F)(F)F)cc(O)c1-c1ccc(CNC2CN3CCC2CC3)nn1 (stereo not shown) [Compound 154] | ≥ 10000 | ≥ 10000 |
| Cc1cc(C(F)(F)F)cc(O)c1-c1ccc(CNC2CC(F)(F)C2)nn1 [Compound 143] |  | < 500 |
| Cc1cc(C(F)(F)F)cc(O)c1-c1ccc(COC2CCN(C)CC2)nn1 [Compound 45, 3-Methyl-2-(6-(((1-methylpiperidin-4-yl)oxy)methyl)pyridazin-3-yl)-5-(trifluoromethyl)phenol hydrochloride] | 1000 to 3000 | 1000 to 3000 |
| Cc1cc(Cl)cc(O)c1-c1ccc(CN(C)[C@H]2CC(=O)N(C)C2)nn1 [Compound 91, (4S)-4-({[6-(4-Chloro-2-hydroxy-6-methylphenyl)pyridazin-3-yl]methyl}(methyl)amino)-1-methylpyrrolidin-2-one] | 1000 to 3000 | 1000 to 3000 |
| Cc1cc(C(F)(F)F)cc(O)c1-c1ccc(CNC2CC3CCOC32)nn1 (stereo not shown) [Compound 4, 2-(6-(((2-Oxabicyclo[3.2.0]heptan-7-yl)amino)methyl)pyridazin-3-yl)-3-methyl-5-(trifluoromethyl)phenol] | 1000 to 3000 | 1000 to 3000 |
| Cc1cc(C(F)(F)F)cc(O)c1-c1ccc(CNc2conc2C)nn1 [Compound 55, 3-Methyl-2-(6-(((3-methylisoxazol-4-yl)amino)methyl)pyridazin-3-yl)-5-(trifluoromethyl)phenol] | 500 to 1000 | 500 to 1000 |
| Cc1cc(C(F)(F)F)cc(O)c1-c1ccc(CN[C@@H]2CCN(C)C(=O)C2)nn1 [Compound 37, (R)-4-(((6-(2-Hydroxy-6-methyl-4-(trifluoromethyl)phenyl)pyridazin-3-yl)methyl)amino)-1-methylpiperidin-2-one] | 1000 to 3000 | 500 to 1000 |
| Cc1cc(Cl)cc(O)c1-c1ccc(CO[C@H]2CCOC2)nn1 [Compound 64, (S)-5-Chloro-3-methyl-2-(6-(((tetrahydrofuran-3-yl)oxy)methyl)pyridazin-3-yl)phenol] | < 500 | < 500 |
| Cc1cc(C(F)(F)F)cc(O)c1-c1ccc(CN)nn1 [Compound 20, 2-[6-(aminomethyl)pyridazin-3-yl]-3-methyl-5-(trifluoromethyl)phenol] | 3000 to 10000 | 1000 to 3000 |
| Cc1cc(C(F)(F)F)cc(O)c1-c1ccc(CNc2ccncn2)nn1 [Compound 75, 3-Methyl-2-(6-((pyrimidin-4-ylamino)methyl)pyridazin-3-yl)-5-(trifluoromethyl)phenol hydrochloride] | < 500 | 500 to 1000 |
| Cc1cnc(NCc2ccc(-c3c(C)cc(C(F)(F)F)cc3O)nn2)s1 [Compound 83, 3-Methyl-2-(6-{[(5-methyl-1,3-thiazol-2-yl)amino]methyl}pyridazin-3-yl)-5-(trifluoromethyl)phenol] | 1000 to 3000 | 500 to 1000 |
| CC(=O)N1CCC(OCc2ccc(-c3c(C)cc(Cl)cc3O)nn2)C1 (stereo not shown) [Compound 68, 1-(3-((6-(4-Chloro-2-hydroxy-6-methylphenyl)pyridazin-3-yl)methoxy)pyrrolidin-1-yl)ethan-1-one] | 500 to 1000 | 500 to 1000 |
| Cc1cc(C(F)(F)F)cc(O)c1-c1ccc(COC2CCCN(C)C2)nn1 (stereo not shown) [Compound 41, 3-Methyl-2-(6-(((1-methylpiperidin-3-yl)oxy)methyl)pyridazin-3-yl)-5-(trifluoromethyl)phenol hydrochloride] | 1000 to 3000 | 500 to 1000 |
| Cc1cc(C(F)(F)F)cc(O)c1-c1ccc(CNC(=O)C2CCOCC2)nn1 [Compound 7, N-((6-(2-Hydroxy-6-methyl-4-(trifluoromethyl)phenyl)pyridazin-3-yl)methyl)tetrahydro-2H-pyran-4-carboxamide] | 3000 to 10000 | 3000 to 10000 |
| Cc1cc(C(F)(F)F)cc(O)c1-c1ccc(CNC2CCOCC2)nn1 [Compound 1, 3-Methyl-2-(6-(((tetrahydro-2H-pyran-4-yl)amino)methyl)pyridazin-3-yl)-5-(trifluoromethyl)phenol] | 500 to 1000 | 500 to 1000 |
| Cc1cc(OC(F)(F)F)cc(O)c1-c1ccc(CNC2CCOCC2)nn1 [Compound 30, 3-Methyl-2-(6-(((tetrahydro-2H-pyran-4-yl)amino)methyl)pyridazin-3-yl)-5-(trifluoromethoxy)phenol] | 3000 to 10000 | 3000 to 10000 |
| Cc1cc(C(F)(F)F)cc(O)c1-c1ccc(CNc2ccnn2C)nn1 [Compound 27] | 1000 to 3000 | 500 to 1000 |
| Cc1cc(C(F)(F)F)cc(O)c1-c1ccc(CN[C@H]2CCOC2)nn1 [Compound 33, (S)-3-methyl-2-(6-(((tetrahydrofuran-3-yl)amino)methyl)pyridazin-3-yl)-5-(trifluoromethyl)phenol] | < 500 | < 500 |
| CNCc1ccc(-c2c(C)cc(C(F)(F)F)cc2O)nn1 [Compound 93] | 1000 to 3000 | 1000 to 3000 |
| Cc1cc(C(F)(F)F)cc(O)c1-c1ccc(C(C)(C)N2CCCC2=O)nn1 [Compound 81, 1-(2-{6-[2-Hydroxy-6-methyl-4-(trifluoromethyl)phenyl]pyridazin-3-yl}propan-2-yl)pyrrolidin-2-one] | 1000 to 3000 | 1000 to 3000 |
| Cc1cc(Cl)cc(O)c1-c1ccc(CN(C)[C@@H]2CCOC2)nn1 [Compound 58, (R)-5-Chloro-3-methyl-2-(6-((methyl(tetrahydrofuran-3-yl)amino)methyl)pyridazin-3-yl)phenol] | 1000 to 3000 | 1000 to 3000 |

Continued, in another order:

| IC50 (THP-1) [nM] | SMILES | IC50 [1] [nM] |
| --- | --- | --- |
| 500 to 1000 | Cc1cc(C(F)(F)F)cc(O)c1-c1ccc(CN2CCCC2)nn1 [Compound 133] | < 500 |
| 3000 to 10000 | Cc1cc(C(F)(F)F)cc(O)c1-c1ccc(Cn2ccc(=N)cn2)nn1 [Compound 121] | ≥ 10000 |
| 1000 to 3000 | Cc1cc(C(F)(F)F)cc(O)c1-c1ccc(CN2CCN(C)C(=O)C2)nn1 [Compound 132] | 1000 to 3000 |
| 500 to 1000 | CC(=O)N1CCC(NCc2ccc(-c3c(C)cc(C(F)(F)F)cc3O)nn2)CC1 [Compound 142] | < 500 |
| < 500 | Cc1cc(C(F)(F)F)cc(O)c1-c1ccc(CN2CCCCC2=O)nn1 [Compound 151] | < 500 |
| 1000 to 3000 | COCCNCc1ccc(-c2c(C)cc(C(F)(F)F)cc2O)nn1 [Compound 115] | 1000 to 3000 |
| 1000 to 3000 | Cc1cc(C(F)(F)F)cc(O)c1-c1ccc(CNCc2ccnn2C)nn1 [Compound 126] | 1000 to 3000 |
| 1000 to 3000 | Cc1cc(C(F)(F)F)cc(O)c1-c1ccc(CNCC(C)(C)O)nn1 [Compound 117] | 500 to 1000 |
| < 500 | Cc1cc(C(F)(F)F)cc(O)c1-c1ccc(CN2CCCC2=O)nn1 [Compound 134] | < 500 |
| 1000 to 3000 | Cc1cc(C(F)(F)F)cc(O)c1-c1ccc(CNC2CCCOC2)nn1 (stereo not shown) [Compound 102] | 500 to 1000 |
| 500 to 1000 | COC1CCC(NCc2ccc(-c3c(C)cc(C(F)(F)F)cc3O)nn2)CC1 (stereo not shown) [Compound 140] | < 500 |
| 3000 to 10000 | Cc1cc(C(F)(F)F)cc(O)c1-c1ccc(CNCCC(C)(C)O)nn1 [Compound 118] | 1000 to 3000 |
| 500 to 1000 | Cc1cc(C(F)(F)F)cc(O)c1-c1ccc(CNC(C)C)nn1 [Compound 99] | < 500 |
| 500 to 1000 | Cc1cc(C(F)(F)F)cc(O)c1-c1ccc(CNc2ccn(C)n2)nn1 [Compound 122] | < 500 |
| 1000 to 3000 | Cc1cnc(NCc2ccc(-c3c(C)cc(C(F)(F)F)cc3O)nn2)o1 [Compound 148] |  |
